Source: PMC11143312, “Antioxidant, anti-amylase, anti-lipase, and efficiency of Satureja fatty acid on the anti-inflammatory parameters in lipopolysaccharide-stimulated macrophage through Nrf2/NF-kB/NADH oxidase pathway” (Scientific Reports, 2024)
Converted amounts (≈) assume the structure as drawn.

Assays:
[1] = molecular target: T1, lipase (EC 3.1.1.3, from Saccharomyces cerevisiae); experiment: p-nitrophenyl butyrate hydrolysis, absorbance at […] nm; type: biochemical; settings: 30 min pre-incubation, 37 °C; substrate pNPB; positive control
T1 construct: gene TGL2; discussion speaks of pancreatic lipase, but the assay used the yeast-labelled enzyme

[2] = tested on: T1, lipase (EC 3.1.1.3, from Saccharomyces cerevisiae); experiment: pNPB hydrolysis at […] nm, Lineweaver-Burk plot; type: biochemical; settings: no inhibitor; unit printed as µg, not a concentration; pNPB 0.0–10 mg/mL

IC50 [1] [µg/mL]	Km [2] [µg]	SMILES
213 ± 5.0 (≈ 430 µM)		CCCCCCCCCCC[C@@H](C[C@@H]1OC(=O)[C@H]1CCCCCC)OC(=O)[C@H](CC(C)C)NC=O [orlistat]
	5.08 ± 0.23	CCCC(=O)Oc1ccc([N+](=O)[O-])cc1 [p-nitrophenyl butyrate]
